Assays:
lipoamide = compound: NC(=O)CCCCC1CCSS1 [lipoamide]; assay: thermal stability z-score vs DMSO; higher = more thermally stabilized by treatment; conditions: HeLa, lipoamide concentration 100 µM
Experimental: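 Cellular thermal proteome profiling in HeLa cells. Cells were treated with 100 µM lipoamide for 1 h, with or without 1 mM arsenate for a further 1 h, then heated to ten temperatures (37-66.3 °C), and soluble protein was quantified by TMT mass spectrometry relative to 0.1% DMSO controls. The thermal stability score (sum of log2 fold changes minus the abundance score) was transformed to a z-score; mean of n = 3 experiments.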

potassium arsenate = compound: O=[As]([O-])(O)O.[K+] [potassium arsenate]; assay: as above; conditions: HeLa; arsenate concentration 1 mM
Experimental: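 Cellular thermal proteome profiling in HeLa cells treated with 1 mM arsenate for 1 h (DMSO pretreatment), heated to ten temperatures (37-66.3 °C). Soluble protein was quantified by TMT mass spectrometry relative to DMSO controls; the thermal stability score was transformed to a z-score; mean of n = 3 experiments.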

[1] = arsenate co-treatment: 1 mM arsenate 1 h
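Note: each temperature applied for 3 min, abundance score taken as mean log2 fold change at the two lowest temperatures, z-score obtained by mean subtraction and division by SD.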

Chain of UniProt Q96P16 (Q96P16 whole entry): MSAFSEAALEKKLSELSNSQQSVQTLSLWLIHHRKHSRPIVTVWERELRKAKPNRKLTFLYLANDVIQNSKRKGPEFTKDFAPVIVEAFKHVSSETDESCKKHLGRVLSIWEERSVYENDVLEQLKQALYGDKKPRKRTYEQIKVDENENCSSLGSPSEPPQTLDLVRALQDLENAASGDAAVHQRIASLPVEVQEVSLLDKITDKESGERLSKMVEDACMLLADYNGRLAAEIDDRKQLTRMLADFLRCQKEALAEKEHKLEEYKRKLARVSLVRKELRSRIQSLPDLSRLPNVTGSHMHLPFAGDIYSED
Chain of UniProt Q8N5L8 (Q8N5L8 whole entry): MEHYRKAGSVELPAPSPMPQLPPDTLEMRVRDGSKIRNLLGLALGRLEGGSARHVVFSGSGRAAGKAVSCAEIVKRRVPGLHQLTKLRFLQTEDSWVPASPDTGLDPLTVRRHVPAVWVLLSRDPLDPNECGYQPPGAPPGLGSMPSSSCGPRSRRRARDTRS
Chain of UniProt O75818 (O75818 whole entry): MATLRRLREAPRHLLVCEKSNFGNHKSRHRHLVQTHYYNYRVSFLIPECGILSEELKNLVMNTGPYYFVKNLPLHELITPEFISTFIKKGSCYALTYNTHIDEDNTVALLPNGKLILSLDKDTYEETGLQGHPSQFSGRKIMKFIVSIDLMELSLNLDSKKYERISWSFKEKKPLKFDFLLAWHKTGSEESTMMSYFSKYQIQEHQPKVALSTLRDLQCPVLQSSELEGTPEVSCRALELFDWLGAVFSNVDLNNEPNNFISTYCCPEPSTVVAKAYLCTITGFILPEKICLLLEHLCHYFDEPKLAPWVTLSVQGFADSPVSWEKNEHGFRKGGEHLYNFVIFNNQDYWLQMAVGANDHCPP
Chain of UniProt P05387 (P05387 whole entry): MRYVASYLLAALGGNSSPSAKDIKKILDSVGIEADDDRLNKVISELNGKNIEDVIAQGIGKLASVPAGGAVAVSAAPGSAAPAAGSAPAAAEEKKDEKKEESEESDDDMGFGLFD
Chain of UniProt P04843 (P04843 whole entry): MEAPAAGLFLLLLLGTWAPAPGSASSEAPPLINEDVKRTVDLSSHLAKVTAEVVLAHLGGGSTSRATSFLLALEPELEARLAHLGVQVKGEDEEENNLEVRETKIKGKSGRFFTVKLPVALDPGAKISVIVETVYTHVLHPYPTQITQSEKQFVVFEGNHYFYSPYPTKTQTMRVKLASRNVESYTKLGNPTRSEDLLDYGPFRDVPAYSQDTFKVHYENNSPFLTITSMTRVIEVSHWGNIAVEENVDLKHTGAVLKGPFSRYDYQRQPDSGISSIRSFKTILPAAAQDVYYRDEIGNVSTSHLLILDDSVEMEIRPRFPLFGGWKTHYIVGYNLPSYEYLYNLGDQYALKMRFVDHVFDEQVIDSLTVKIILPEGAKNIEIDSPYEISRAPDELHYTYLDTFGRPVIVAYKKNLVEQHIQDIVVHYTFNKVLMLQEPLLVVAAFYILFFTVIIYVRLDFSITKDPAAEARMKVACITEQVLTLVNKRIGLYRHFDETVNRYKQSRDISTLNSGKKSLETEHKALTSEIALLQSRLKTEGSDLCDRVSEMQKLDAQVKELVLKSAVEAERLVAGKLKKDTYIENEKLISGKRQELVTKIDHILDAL
Chain of UniProt P78345 (P78345 whole entry): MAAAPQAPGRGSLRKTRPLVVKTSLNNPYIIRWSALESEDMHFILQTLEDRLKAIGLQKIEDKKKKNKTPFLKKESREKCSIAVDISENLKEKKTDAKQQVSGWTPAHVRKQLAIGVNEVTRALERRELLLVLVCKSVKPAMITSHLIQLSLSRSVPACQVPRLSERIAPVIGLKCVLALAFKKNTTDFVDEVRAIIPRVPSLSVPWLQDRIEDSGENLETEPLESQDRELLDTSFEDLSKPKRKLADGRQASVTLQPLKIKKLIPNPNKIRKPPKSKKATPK
Chain of UniProt P78346 (P78346 whole entry): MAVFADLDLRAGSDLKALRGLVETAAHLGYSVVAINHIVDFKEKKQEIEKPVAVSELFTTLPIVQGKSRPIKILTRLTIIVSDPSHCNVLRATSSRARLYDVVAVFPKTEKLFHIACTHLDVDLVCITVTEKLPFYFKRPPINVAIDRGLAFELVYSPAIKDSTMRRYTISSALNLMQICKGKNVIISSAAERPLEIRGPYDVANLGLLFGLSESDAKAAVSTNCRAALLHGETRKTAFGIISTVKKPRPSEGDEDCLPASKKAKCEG
Chain of UniProt Q9BUL9 (Q9BUL9 whole entry): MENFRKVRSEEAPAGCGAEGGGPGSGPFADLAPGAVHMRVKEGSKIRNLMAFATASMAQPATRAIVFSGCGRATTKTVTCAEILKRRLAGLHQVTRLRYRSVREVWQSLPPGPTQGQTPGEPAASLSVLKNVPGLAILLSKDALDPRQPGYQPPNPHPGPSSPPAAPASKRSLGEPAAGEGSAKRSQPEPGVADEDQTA
Chain of UniProt P05386 (P05386 whole entry): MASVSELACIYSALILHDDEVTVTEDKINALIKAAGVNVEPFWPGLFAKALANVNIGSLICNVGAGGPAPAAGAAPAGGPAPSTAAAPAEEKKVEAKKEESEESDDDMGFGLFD
Chain of UniProt Q9H633 (Q9H633 whole entry): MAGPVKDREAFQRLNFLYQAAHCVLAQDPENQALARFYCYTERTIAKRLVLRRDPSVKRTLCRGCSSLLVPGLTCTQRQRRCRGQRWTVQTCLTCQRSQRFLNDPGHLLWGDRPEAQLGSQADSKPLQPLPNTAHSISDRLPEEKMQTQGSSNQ
Chain of UniProt P04844 (P04844 whole entry): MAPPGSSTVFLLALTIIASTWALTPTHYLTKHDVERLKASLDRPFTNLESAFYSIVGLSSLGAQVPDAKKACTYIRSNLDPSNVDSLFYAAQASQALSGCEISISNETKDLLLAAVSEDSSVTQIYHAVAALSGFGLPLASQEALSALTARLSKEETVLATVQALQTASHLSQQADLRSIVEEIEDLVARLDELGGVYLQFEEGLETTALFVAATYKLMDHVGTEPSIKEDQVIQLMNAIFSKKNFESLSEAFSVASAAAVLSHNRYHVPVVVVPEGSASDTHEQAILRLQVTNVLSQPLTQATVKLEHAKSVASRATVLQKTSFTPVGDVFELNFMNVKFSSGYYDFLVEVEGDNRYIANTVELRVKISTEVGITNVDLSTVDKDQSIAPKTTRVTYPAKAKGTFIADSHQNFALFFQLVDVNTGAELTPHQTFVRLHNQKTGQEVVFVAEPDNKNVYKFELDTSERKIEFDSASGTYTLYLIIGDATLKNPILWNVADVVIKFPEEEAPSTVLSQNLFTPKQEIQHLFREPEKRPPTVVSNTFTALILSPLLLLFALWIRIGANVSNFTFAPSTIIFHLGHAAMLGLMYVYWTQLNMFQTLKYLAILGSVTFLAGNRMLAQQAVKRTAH

Row | Target | thermal stability z-score (lipoamide; [1]) | thermal stability z-score (lipoamide; arsenate co-treatment: none) | thermal stability z-score (potassium arsenate)
1 | RPL3 (UniProt P39023) | 0.408 | -0.0552 | -0.75
2 | RPL4 (UniProt P36578) | 0.486 | 0.0127 | -0.66
3 | RPL5 (UniProt P46777) | 0.172 | 0.132 | -0.481
4 | RPL6 (UniProt Q02878) | 0.349 | 0.0467 | -0.92
5 | RPL7 (UniProt P18124) | 1.02 | 0.379 | -0.13
6 | RPL7A (UniProt P62424) | 0.455 | 0.197 | -0.955
7 | RPL7L1 (UniProt Q6DKI1) | 0.203 | 0.0421 | -0.203
8 | RPL8 (UniProt P62917) | 0.0892 | -0.22 | -1.07
9 | RPL9 (UniProt P32969) | 0.762 | 0.659 | -0.232
10 | RPL10 (UniProt P27635) | 0.0934 | -0.15 | -0.781
11 | RPL10A (UniProt P62906) | 0.849 | 0.534 | 0.27
12 | RPL11 (UniProt P62913) | 0.156 | 0.371 | -1.44
13 | RPL12 (UniProt P30050) | 0.344 | 0.0511 | -0.459
14 | RPL13 (UniProt P26373) | -0.064 | 0.00879 | -1.05
15 | RPL13A (UniProt P40429) | 0.328 | 0.16 | -0.496
16 | RPL14 (UniProt P50914) | 0.565 | 0.492 | -1.08
17 | RPL15 (UniProt P61313) | 0.537 | 0.113 | -0.589
18 | RPL17 (UniProt P18621) | 0.743 | 0.704 | -0.755
19 | RPL18 (UniProt Q07020) | 0.497 | -0.313 | -0.424
20 | RPL18A (UniProt Q02543) | 0.628 | 0.246 | -0.333
21 | RPL19 (UniProt P84098) | 0.269 | -0.195 | -1.08
22 | RPL21 (UniProt P46778) | 0.61 | 0.308 | -1.03
23 | RPL22 (UniProt P35268) | -0.122 | -0.292 | -0.98
24 | RPL22L1 (UniProt Q6P5R6) | -0.147 | -0.537 | -0.919
25 | RPL23 (UniProt P62829) | 0.548 | -0.122 | -0.839
26 | RPL23A (UniProt P62750) | -0.321 | -0.341 | -1.49
27 | RPL24 (UniProt P83731) | 0.228 | -0.084 | -0.927
28 | RPL26 (UniProt P61254) | 1.18 | 0.347 | -0.347

Row | Target | thermal stability z-score (lipoamide; [1]) | thermal stability z-score (lipoamide; arsenate co-treatment: none) | thermal stability z-score (potassium arsenate)
29 | RPL26L1 (UniProt Q9UNX3) | 0.252 | 0.884 | 0.434
30 | RPL27 (UniProt P61353) | 0.459 | 0.431 | -0.612
31 | RPL27A (UniProt P46776) | 0.419 | 0.401 | -0.482
32 | RPL28 (UniProt P46779) | 0.57 | 0.375 | -0.548
33 | RPL29 (UniProt P47914) | 0.301 | -0.146 | -0.918
34 | RPL30 (UniProt P62888) | 0.771 | 0.183 | -0.666
35 | RPL31 (UniProt P62899) | -0.223 | -0.0856 | -0.8
36 | RPL32 (UniProt P62910) | 0.158 | -0.028 | -0.93
37 | RPL34 (UniProt P49207) | 0.331 | 0.134 | -1.17
38 | RPL35 (UniProt P42766) | 0.579 | 0.674 | -0.812
39 | RPL35A (UniProt P18077) | 0.893 | 0.484 | -0.477
40 | RPL36 (UniProt Q9Y3U8) | 0.354 | -0.0802 | -1.19
41 | RPL37 (UniProt P61927) | 0.254 | 0.203 | -0.915
42 | RPL37A (UniProt P61513) | 0.766 | 0.392 | -0.29
43 | RPL38 (UniProt P63173) | 0.982 | 0.439 | -0.704
44 | RPLP0 (UniProt P05388) | 1.08 | 0.341 | -0.4
45 | RPLP1 (UniProt P05386) | 1.44 | 0.753 | 0.00244
46 | RPLP2 (UniProt P05387) | 1.56 | 1.34 | 0.225
47 | RPN1 (UniProt P04843) | -1.47 | -0.974 | 0.346
48 | RPN2 (UniProt P04844) | -2.41 | -1.79 | 0.141
49 | RPP21 (UniProt Q9H633) | -0.411 | -0.242 | -0.209
50 | RPP25 (UniProt Q9BUL9) | -0.534 | -0.856 | -1.34
51 | RPP25L (UniProt Q8N5L8) | 0.36 | 0.117 | 0.245
52 | RPP30 (UniProt P78346) | -0.9 | -0.668 | -1.55
53 | RPP38 (UniProt P78345) | -0.128 | 0.146 | -0.347
54 | RPP40 (UniProt O75818) | 0.705 | -0.123 | -1.15
55 | RPRD1A (UniProt Q96P16) | -0.123 | -0.0762 | -0.037
